binding, binding signal (ms translocation time) and binding signal (ng/cm2 adsorbed mass) data for seven molecules are collected here from publication PMC10906075 (2024).

In data set [1] the test system is FAM-labeled phenylalanine aptamer (DNA, aptamer) CTCTCGGGACGACGAGGCTGGATGCATTCGCCGGATGTTCGATGTCGTCCC
The data set is described as follows: strand-displacement fluorescence assay (FAM/dabcyl). Conditions: PBS (~150 mM salt), 2 mM MgCl2, dabcyl quencher strand GTCGTCCCGAGAG (S4) displaced, 50 nM aptamer, 150 nM quencher, ~40 min, ambient.

The test system of data set [2] is Phe peptide (Phe1) (designed). The data set is described as follows: interface nanopore. Conditions: PBS, 1.5 V, 1.0 uN; thiol for surface coupling (end not stated); OWLS: 1x PBS; nanopore: PBS (~150 mM salt), 0.5-1.5 V; pH and temperature not given.
In data set [3] the test system is Phe peptide (Phe1) (designed). The data set is described as follows: OWLS. The settings on record: 1x PBS, thiol for surface coupling (end not stated), OWLS: 1x PBS, nanopore: PBS (~150 mM salt), 0.5-1.5 V, pH and temperature not given.

On to `NC(=O)[C@@H](N)Cc1ccccc1`, for which the binding result in data set [1] was “yes”.
For “CGACGAGGCTGGATGCATTCGCCGGATGTTCGATGTCG [phenylalanine aptamer]”, the binding signal (ms translocation time) in data set [2] is 190. Besides, the binding signal (ng/cm2 adsorbed mass) in data set [3] (peptide retained after buffer rinse) stood at 198.
As to `NCCc1ccccc1`, the binding result in data set [1] is recorded as “weak”.
On the same count and under the same terms, for `N[C@@H](Cc1ccccc1)C(=O)O` the value was “yes”.
Still for that read-out and setting: for `N[C@@H](Cc1c[nH]c2ccccc12)C(=O)O` the value was “no”.
Same read-out and setting: for `N[C@@H](Cc1ccc(O)cc1)C(=O)O` the value was “no”.
For the molecule “ATTGCTATTCACCGGCGCGGGGCTGGGGCATCGGTAAT [scrambled sequence]”, the binding signal (ms translocation time) in data set [2] was 11. In addition, the binding signal (ng/cm2 adsorbed mass) in data set [3] (attributed to nonspecific electrostatic binding) is 140.
